# Results reported in patent publication US12319707B2, “Dosage unit form(s) comprising BTS and BTS(OMe) for use in boron neutron capture therapy and methods thereof” (TAE Life Sciences, priority 2021, dated 2025).
# Assays:
# subcutaneous FaDu tumors = experiment: Time-course biodistribution and tumor to blood ratio in mice bearing subcutaneous FaDu tumors; format: in vivo; settings: 400 mg/kg bolus i.v.
# Method: To determine the biodistribution of BTS and BTS(OMe) and the tumor to blood ration, the following experiments were performed using the following protocols. Briefly, all compounds tested, with the exception of BPA, were prepared as 100 mg/mL stocks. BPA was prepared as a fructose solution at 25 mg/ml. The concentrations were confirmed by ICP OES prior to the study. The blood and tissues (tumor, kidney, and pancreas) were harvested at the times indicated, weighed, and placed inside the Teflon containers and digested using a CEM microwave oven. The digested tissues were analyzed by ICP OES to determine the boron concentration.
# All animal studies were carried out following the “Guide for the care and use the laboratory animals,” Eighth Edition and Animal Welfare Act (USDA). Briefly, human hypopharyngeal squamous cell carcinoma FaDu cells were maintained in DMEM, supplemented with L-glutamine and 10% FBS. Subcutaneous (s.c.) tumors were generated by injection of 2.5×10^6 cancer cells mixed at a 1:1 dilution with Matrigel (Corning Life Sciences) in the right flank of female CB17 SCID mice. Tumor sizes were determined by caliper measurements, and the tumor volume was calculated as width^2×Length/2, wherein width is the smallest dimension and length is the largest dimension. Tumors were allowed to grow untreated until they reached an approximate volume of 300 mm^3. At that point, animals were randomized and allocated to each treatment group based on tumor volume at the time of treatment initiation to ensure similar mean tumor size and variation in each group.
# Each group received a single dose of BPA at […] or a test article at either 400 mg/kg or […] via intravenous tail vein injection. […] Two (2) hrs. post dose, blood was collected from each mouse from the submandibular vein into K2 EDTA coated tubes. Tumor and organs were collected for boron analysis.
# In order to determine the biodistribution of BTS and BTS(OMe) in FaDu-tumor bearing mice and determine the most appropriate time to harvest the tumor and organs of interest during the subsequent dose-escalation studies, 400 mg/kg doses of both molecules were administered as a bolus i.v. injection. BPA-fructose was administered at a dose of […] due to its solubility constraints and the requirements for the maximum i.v. volume allowed. The boron compound accumulation in blood/organs was determined by ICP OES and expressed as μg boron per gram of tissue.
# [1] = tested on: FaDu, A375, SCC-25, A253, and Detroit 562; experiment: BTS uptake across head and neck cancer and melanoma cell lines; format: cell-based, human; settings: 2 hours treatment, each of the five cell lines
# Method: To evaluate the uptake of BTS in multiple head and neck cancer cell lines as well as melanoma cell lines the following experiments were performed using the following protocols.
# Briefly, five (5) human-derived cell lines (FaDu, A375, SCC-25, A253, and Detroit 562), all representing cancer indications relevant to BNCT treatment, were cultured, and treated with either BPA-fructose (the standard of care) or with BTS for two (2) hours. The cells were then washed to remove the compounds, harvested, and treated as per the protocol described above. Boron uptake was reported as μg boron per mg of cellular protein as determined by ICP OES and by the BCA assay, respectively.
# CT26 cells = experiment: Boron uptake in CT26 cells in vitro (ICP-OES); format: cell-based, mouse; settings: CT26 cell line, single experiment
# Description: As a result, it accumulates boron compounds at significant levels. Additionally, FaDu also grows well as an established xenograft model in SCID mice. This disclosure endeavored to determine whether a mouse-derived cancer cell line, CT-26, is suitable for BNCT experiments. By way of background, CT26 is a syngeneic model, it can be implanted and established in wild-type BalbC mice and provides a convenient and low-cost model.
# Briefly, CT26 cells were harvested and washed with PBS two (2) times, and the count was adjusted 2 million/ml in HBSS media Boron compounds were then added to cells at the final concentration of 2.5 mM in HBSS and the cells were incubated at 37° C. in a humidified 5% CO2 atmosphere for 2.0 hrs. with shaking. Following a two (2) hr. incubation, cells were harvested and washed two times with ice cold PBS. Cells were suspended in 1 ml ice cold PBS and a portion (50 NI) was lysed in RIPA buffer and protein content was determined by BCA assay.
# The remaining portion (950 NI) was subjected to nitric acid lysis (66.7% acid at 80° C.) and boron measurements were carried out using ICP-OES.
# Low expression of LAT-1 in CT26 estimated by Western blot is consistent with the overall reduced boron uptake. Each bar represents three (3) independent experiments performed on different days (FaDu) or a single experiment (CT-26) Error bars represent 1 standard deviation. […]
# [2] = tested on: FaDu, Detroit 562, MeWo, A549, HCC-1954 xenografts; experiment: Boron uptake across panel of established tumor xenografts; format: in vivo; settings: BTS or BTS(OMe) 800 mg/kg vs BPA 200 mg/kg, 2 hours post-injection, SCID CB-17 mice
# Description: In a further experiment, to ascertain whether BTS and BTS(OMe) are taken up to a relatively higher degree across cancer multiple cell lines which results in a higher boron concentration, the following protocol was used. Briefly, a panel of five (5) human cancer cell lines derived from multiple indications that would be considered for treatment using BNCT were used. Specifically, the panel consisted of Head and Neck Carcinomas (FaDu and Detroit 562), melanoma (MeWo), non-small cancer lung carcinoma (A549), and breast carcinoma (HCC-1954).
# Using standard methods, subcutaneously implanted established mouse xenografts were grown in SCID CB-17 mice. The treatment began when the tumors reached 150-200 mm^3 as follows: the BTS or BTS(OMe) arms received 800 mg/kg and the control BPA arm received 200 mg/kg. The animals were euthanized at two (2) hours post-injection. The tumors were harvested, weighed, and digested using the standard methods. The concentration of boron was measured by ICP OES and plotted as microgram per gram tissue. […] However, the absolute uptake varied between the cell lines with the overall lowest uptake observed in the Detroit 562 tumors.
# [3] = Pharmacokinetics in non-tumor-bearing Balb/C mice (blood boron by ICP OES); format: in vivo; settings: for CL / Vss: i.v. tail vein, Balb/C male mice, blood boron
# Method: To determine the pharmacokinetics of BTS versus BPA (BPA-fructose) in blood, the following experiments were performed using the following protocols and under the parameters set forth in Table II. Briefly, […] of each compound ([…] and BPA-fructose) was injected into the tail vein of Balb/C non-tumor bearing male mice (5 mice per group). Blood was drawn at the following time points: 2, 5, 16, 30, 60, 120 and 240 min into EDTA-coated tubes. Boron concentration was measured using ICP OES following the digestion in concentrated nitric acid for one (1) hr. The boron concentration was normalized to 1 mL of blood and plotted using GraphPad Prizm. The PK parameters (see 20(B)) were obtain using PK Solver version 2.0 using compartmental analysis. BPA-fructose was used as a reference substance.
# FaDu cells = experiment: Boron uptake in FaDu cells in vitro (ICP-OES); format: cell-based, human; settings: for intracellular boron concentration: equimolar 2.5 mM compound in HBSS, 2 hr, 37° C., ICP-OES
# LAT-1 [4] = molecular target: T1, LAT-1 (Homo sapiens, UniProt Q01650); experiment: Uptake competition assay with phenylalanine in FaDu cells; format: cell-based; design: endogenous in cells; host or cells: FaDu; settings: 0.5 mM compound, Phe 0.01 to 20 mM, compared to BTS(OMe) or BPA
# Method: To determine the ability for BTS and BTS(OMe) to mediate LAT-1, the following experiments were performed using the following protocols. Briefly, FaDu cells (2 million) were incubated in HBSS medium for two (2) hrs. at 37° C. with 0.5 mM of either (i) BTS, (ii) BTS(OMe), or (iii) BPA-fructose in the absence (19A) or presence of increasing concentrations of LAT-1 specific inhibitor JPH203-dichloride, (19A) or phenylalanine, a competitor (19B). Following incubation, the cells were harvested and washed with cold PBS. The amount of each compound that was taken up by the cells was determined by ICP OES. The IC50 determination was made by a three (3) parameter inhibitor non-linear regression fit using Prism (Graph Pad) software.
# In the competition assay, increased concentration of Phe in the range of 0.01 to 20 mM was used. […] (FIG. 19).
# Target sequence in this assay (Q01650 whole entry): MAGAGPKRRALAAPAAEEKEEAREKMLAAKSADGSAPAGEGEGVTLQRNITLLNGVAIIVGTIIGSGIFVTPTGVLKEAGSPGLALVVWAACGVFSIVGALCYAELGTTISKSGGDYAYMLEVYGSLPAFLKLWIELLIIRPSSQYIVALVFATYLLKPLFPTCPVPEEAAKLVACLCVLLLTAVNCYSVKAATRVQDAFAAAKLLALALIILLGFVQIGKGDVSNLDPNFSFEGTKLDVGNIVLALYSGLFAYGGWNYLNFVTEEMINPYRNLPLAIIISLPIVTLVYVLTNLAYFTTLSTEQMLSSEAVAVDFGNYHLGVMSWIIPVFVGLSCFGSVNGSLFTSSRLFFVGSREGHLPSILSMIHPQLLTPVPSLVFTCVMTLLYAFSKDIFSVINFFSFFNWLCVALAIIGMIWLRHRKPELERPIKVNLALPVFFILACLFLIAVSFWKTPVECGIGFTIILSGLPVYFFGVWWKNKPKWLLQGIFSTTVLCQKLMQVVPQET
# Target sequence in this assay (P08195 102-630 partner): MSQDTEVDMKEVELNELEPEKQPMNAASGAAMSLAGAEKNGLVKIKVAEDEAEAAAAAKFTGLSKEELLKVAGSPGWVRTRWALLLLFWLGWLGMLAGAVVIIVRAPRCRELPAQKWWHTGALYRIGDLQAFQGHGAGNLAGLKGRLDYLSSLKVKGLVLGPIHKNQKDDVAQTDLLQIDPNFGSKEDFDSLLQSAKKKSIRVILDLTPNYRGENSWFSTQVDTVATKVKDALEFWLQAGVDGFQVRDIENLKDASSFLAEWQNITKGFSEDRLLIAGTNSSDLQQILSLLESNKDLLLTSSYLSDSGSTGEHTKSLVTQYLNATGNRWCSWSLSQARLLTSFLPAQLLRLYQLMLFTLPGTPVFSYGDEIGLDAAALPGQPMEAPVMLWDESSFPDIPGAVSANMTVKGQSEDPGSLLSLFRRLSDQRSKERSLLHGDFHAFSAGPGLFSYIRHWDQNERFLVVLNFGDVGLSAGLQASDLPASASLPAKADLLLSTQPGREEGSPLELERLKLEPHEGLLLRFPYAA
# Solubility in water = format: physicochemical
# Method: To determine the solubility and impurity profiles of BTS and BTS(OMe) in solution, the following experiments were performed using the following protocols. Briefly, BTS test article preparation(s) were prepared by dissolving in water and adjusting pH to 7-7.5 by NaOH.
# BTS(OMe) test article preparation(s) were prepared by dissolving in water and gradually raising pH by adding NaOH until all the crystals are solubilized. The pH at that point is approximately 9.5-10. Fructose is then added at the ratio of 1.1 mol/mol BTS(OMe). The pH is adjusted to 7-7.5 using concentrated HCl.
# Both solutions were adjusted to 100 mg/mL and 0.2 μm filtered. The actual concentrations are confirmed by ICP OES.
# [5] = tested on: F98 and C6 rat glioma cell lines; experiment: BTS uptake using rat glioma cell lines; format: cell-based; settings: 2 hr, F98 and C6 cells
# Description: Rat glioma cell lines were extensively used as orthotopic cancer models to conduct reactor based BNCT studies using either innovative boron carriers or a myriad of ways to enhance the uptake of BPA, including convection enhanced delivery of boronoporphyrins (Yang, et al., doi:10.1016/j.apradiso.2014.01.002), or pre-treatment of tumors with L-DOPA (Barth, et al., J Neurooncol. 2009; 94:299-312).
# In this experiment, used cultured cell lines to confirm that BTS can be used for efficient boron delivery into both F98 and C6 rat glioma cell lines. […] This compound is expected to cross BBB and will be relevant for BNCT of brain tumors.
# subcutaneous FaDu = experiment: Dose titration, biodistribution and boron uptake using subcutaneous FaDu xenografts; format: in vivo, mice; settings: 2 hr post injection
# Method: To determine the biodistribution and boron uptake of BTS and BTS(OMe) in vivo, the following experiments were performed using the following protocols. Briefly, to evaluate the effect of increased dose level using bolus i.v. injection on the accumulation of boron in the tumor, SCID mice carrying subcutaneous FaDu were dosed with BTS and BTS(OMe) at the levels ranging from 400 to 1000 mg/kg.
# The tumor and selected organs were harvested at two (2) hr. post injection and processed for ICP OES.
# LAT-1 [6] = molecular target: T1, LAT-1; experiment: Boron accumulation in presence of LAT-1 inhibitors (unpublished); format: cell-based; settings: unpublished earlier work of the applicant
# Target sequence in this assay (Q01650 whole entry, species assumed): as the sequence (Q01650 whole entry) above
# Target sequence in this assay (P08195 102-630 partner, species assumed): as the sequence (P08195 102-630 partner) above
# [7] = Cellular retention of boron after removal of boron source from the media; format: cell-based
SMILES,amount of boron in tumors across xenograft panel [2],CL [3],Vss [3] [mg/µg/mL],solubility in water (Solubility in water),intracellular boron concentration (FaDu cells) [µg/g],effect of LAT-1 inhibitor on boron accumulation of borylated tyrosine analogs (LAT-1 [6]),further results
Nc1cc(COc2c(Cl)cc(C[C@H](N)C(=O)O)cc2Cl)c2oc(-c3ccccc3)nc2c1 [JPH203],–,–,–,–,–,diminished boron accumulations in a concentration-dependent fashion,–
"NC1(C(=O)O)CC2CCC1C2 (stereo not shown) [BCH, 2-aminobicyclo-(2,2,1)-heptane-2-carboxylic acid]",–,–,–,–,–,diminished boron accumulations in a concentration-dependent fashion,–

# Continued, in another order:
amount of boron in tumors across xenograft panel [2],CL [3],Vss [3] [mg/µg/mL],solubility in water (Solubility in water),SMILES,intracellular boron concentration (FaDu cells) [µg/g],effect of LAT-1 inhibitor on boron accumulation of borylated tyrosine analogs (LAT-1 [6]),further results
highest,0.000304 mg/(μg/mL)/min,0.0252,very soluble in water,N[C@@H](Cc1ccc(O)c(B(O)O)c1)C(=O)O [BTS],1700 ± 133,–,"uptake in murine pancreas (subcutaneous FaDu tumors): exceedingly high uptake; increase of tumor to blood ratio between 30 and 60 min (subcutaneous FaDu tumors; FaDu xenografts): more than two-fold; decline of boron in the kidney (subcutaneous FaDu tumors; from initial time point of 5 min): considerably slower; boron uptake compared to BPA-fructose [1]: superior uptake; amount of compound internalized in CT26 less than in FaDu (CT26 cells): more pronounced; pharmacokinetic profile ([3]; saline formulation, i.v.): bi-phasic pharmacokinetics; intracellular boron concentration higher compared to BPA-fructose (FaDu cells; equimolar concentrations): 60%; IC50 of phenylalanine competition of compound uptake (LAT-1 [4]): higher IC50; boron concentration achieved, BTS compared to BPA-fructose [5]: > 2 fold"
highest,–,–,very soluble in water,COc1ccc(C[C@H](N)C(=O)O)cc1B(O)O [BTS(OMe)],1005 ± 113,–,biodistribution compared to BPA (subcutaneous FaDu tumors; BPA-fructose 200): remarkably similar in its biodistribution to BPA; accumulation in kidney or pancreas (subcutaneous FaDu): does not accumulate
–,0.00011 mg/(μg/mL)/min,0.0289,–,"N[C@@H](Cc1ccc(B(O)O)cc1)C(=O)O [BPA, 4-Borono-L-phenylalanine, reference compound]",1097 ± 59,–,intracellular boron once boron source is removed and replaced with fresh medium (cellular retention) [7]: decreases sharply
